Test results as given in ChEMBL document CHEMBL2034948, “The design, synthesis, and biological evaluation of PIM kinase inhibitors” (Bioorg Med Chem Lett, 2012).

Assays:
Assay type in all cases: ADME, organism-based
[1] = Plasma concentration in mouse at 100 mg/kg, po after 1 hr; set-up: dose 100 mg/kg, route oral
[2] = Plasma concentration in mouse at 100 mg/kg, po after 4 hrs; set-up: dose 100 mg/kg, route oral
[3] = Clearance in rat at […]; set-up: dose 2.5 mg/kg; settings: in vivo
[4] = Volume of distribution in rat at […]; set-up: dose 2.5 mg/kg; settings: in vivo
[5] = Half life in rat at […], iv; set-up: dose 2.5 mg/kg, route intravenous; settings: in vivo
[6] = Half life in rat at […], po; set-up: dose 2.5 mg/kg, route oral; settings: in vivo
[7] = Oral bioavailability in rat at […]; settings: in vivo
[8] = Cmax in rat at […], iv; set-up: dose 2.5 mg/kg, route intravenous; settings: in vivo
[9] = Cmax in rat at […], po; set-up: dose 2.5 mg/kg, route oral; settings: in vivo
Rattus norvegicus [10] = experiment: Dose normalised AUC in rat at […], iv; set-up: dose 2.5 mg/kg, route intravenous; settings: in vivo
Rattus norvegicus [11] = experiment: Dose normalised AUC in rat at […], po; set-up: dose 2.5 mg/kg, route oral; settings: in vivo
[12] = Clearance in rat at 5 mg/kg; set-up: dose 5 mg/kg; settings: in vivo
[13] = Volume of distribution in rat at 5 mg/kg; set-up: dose 5 mg/kg; settings: in vivo
[14] = Half life in rat at 5 mg/kg, iv; set-up: dose 5 mg/kg, route intravenous; settings: in vivo
[15] = Half life in rat at 5 mg/kg, po; set-up: dose 5 mg/kg, route oral; settings: in vivo
[16] = Oral bioavailability in rat at 5 mg/kg; settings: in vivo
[17] = Cmax in rat at 5 mg/kg, iv; set-up: dose 5 mg/kg, route intravenous; settings: in vivo
[18] = Cmax in rat at 5 mg/kg, po; set-up: dose 5 mg/kg, route oral; settings: in vivo
Rattus norvegicus [19] = experiment: Dose normalised AUC in rat at 5 mg/kg, iv; set-up: dose 5 mg/kg, route intravenous; settings: in vivo
Rattus norvegicus [20] = experiment: Dose normalised AUC in rat at 5 mg/kg, po; set-up: dose 5 mg/kg, route oral; settings: in vivo

concentration at 1 h [1] | concentration at 4 h [2] | clearance [3] | Vd [4] | half-life [5] | half-life [6] | bioavailability [7] | Cmax [8] | Cmax [9] | AUC/dose (Rattus norvegicus [10]) | AUC/dose (Rattus norvegicus [11]) | clearance [12] | Vd [13] | half-life [14] | half-life [15] | bioavailability [16] | Cmax [17] | Cmax [18] | AUC/dose (Rattus norvegicus [19]) | AUC/dose (Rattus norvegicus [20]) | Compound
78 µM | 22 µM | 13.5 mL/min/kg | 2.4 L/kg | 8.4 h | 3.7 h | 56% | 3.5 µM | 1.2 µM | 2.6 µM·kg·h/mg | 1.5 µM·kg·h/mg | – | – | – | – | – | – | – | – | – | O=c1[nH]c(CN2CC(O)C2)nc2c1oc1ccc(Br)cc12
93 µM | 35 µM | – | – | – | – | – | – | – | – | – | 13.2 mL/min/kg | 2.3 L/kg | 2.7 h | 4.7 h | 79% | 7.6 µM | 3.1 µM | 3.8 µM·kg·h/mg | 2.9 µM·kg·h/mg | O=c1[nH]c(CN2CC[C@@H](O)C2)nc2c1oc1ccc(Br)cc12
6 µM | 5 µM | – | – | – | – | – | – | – | – | – | 56.2 mL/min/kg | 6.2 L/kg | 1.4 h | 1.6 h | 13% | 1.8 µM | 0.1 µM | 0.8 µM·kg·h/mg | 0.1 µM·kg·h/mg | N[C@@H]1CCN(Cc2nc3c(oc4ccc(Br)cc43)c(=O)[nH]2)C1
13 µM | 5 µM | 30.6 mL/min/kg | 3.8 L/kg | 1 h | 1 h | 77% | 1.8 µM | 0.8 µM | 1.7 µM·kg·h/mg | 1.3 µM·kg·h/mg | – | – | – | – | – | – | – | – | – | O=c1[nH]c(CN2CCC2)nc2c1oc1ccc(Br)cc12

Compound | concentration at 1 h [1] | concentration at 4 h [2] | clearance [3] | Vd [4] | half-life [5] | half-life [6] | bioavailability [7] | Cmax [8] | Cmax [9] | AUC/dose (Rattus norvegicus [10]) | AUC/dose (Rattus norvegicus [11]) | clearance [12] | Vd [13] | half-life [14] | half-life [15] | bioavailability [16] | Cmax [17] | Cmax [18] | AUC/dose (Rattus norvegicus [19]) | AUC/dose (Rattus norvegicus [20])
CN1C[C@@H]2C[C@H]1CN2Cc1nc2c(oc3ccc(Br)cc32)c(=O)[nH]1 | 11 µM | 7 µM | – | – | – | – | – | – | – | – | – | 34.1 mL/min/kg | 7.1 L/kg | 2.6 h | 2.6 h | 86% | 1.5 µM | 0.4 µM | 1.2 µM·kg·h/mg | 0.9 µM·kg·h/mg
